According to patent US12465604B2 (priority 2015, dated 2025):
Marks after values point to notes of the source that are not given here.

How the values were obtained:
[1] = system: HIV-based vector integration sites in SupT1 cells; experiment: Integration frequency near safe harbor criteria; format: cell-based
[2] = system: OGH reporter virus in activated primary CD4+ T-cells; conditions: 3 days post infection, trend
Source text: Peripheral Blood Mononuclear cells (PBMCs) were purified and CD4+ T-cells selectively enriched using Bi-specific MAb CD3.8 (AIDS reagents) for 5 days and infected with the OGH reporter virus. HIV infection was monitored 3 days post infection using flow cytometry analysis (FIG. 4).
Human PBMCs were purified, selectively enriched for CD4+ T cells using Bi-specific MAb CD3.8 and infected with the OGH reporter virus, in the presence or absence of LEDGINs (FIG. 7a,b).
Human peripheral blood mononuclear cells (PBMCs), obtained from the Red Cross Blood transfusion Center (Mechelen, Belgium) according to approved bioethical guidelines of our institute (S57175-IRB00002047), were purified from fresh buffy coats using lymphoprep density gradient centrifugation (Stem cell technologies). The CD4+ T cells were selectively enriched using Bi-specific MAb CD3.8 (0.5 μg/mL, AIDS reagents) for 5 days. Cells were cultured in RPMI 1640, 15% v/v FBS, 0.1% v/v Gentamicin, 100 U/ml IL-2 (Peprotech) (T-cell medium, TCM). Enriched total CD4+ primary T cells were infected with single round reporter virus for 2 h at 37° C., washed twice in TCM and reseeded in medium containing different concentrations of LEDGIN CX014442. HIV infection was monitored 48 h post infection using flow cytometry analysis.

[3] = system: HIV-OGH double reporter virus in SupT1 cells; experiment: Reactivation with TNFα, SupT1 cells infected with HIV-OGH double reporter virus; format: cell-based, HIV-1; conditions: SupT1, 50 μM
Description: To corroborate these findings SupT1 cells were infected with the HIV-OGH double reporter virus under different LEDGIN (CX014442) concentrations. SupT1 cells were infected and reactivated under conditions similar to the experiment with HIV tCD34 (FIGS. 2 and 5). Data are represented in FIG. 6. Two different virus dilutions are depicted in panel A and B. In both graphs the percentage eGFP+, mKO2+ cells and overall % mKO2 positive cells is plotted after stimulation with DMSO or TNFα for 24 h. The dashed lines show an increase in percentage of eGFP+, mKO2+ cells after stimulation with TNFα compared to DMSO, while the overall percentage of mKO2 positive cells remains constant. LEDGIN treatment reduces the reactivation of eGFP+, mKO2+ cells in a concentration-dependent manner, with 50 μM of CX014442 reducing reactivation to only 1.5-2 fold (FIG. 6C).
11 days post infection the infected cells were reactivated from latency using TNFalpha (10 ng/mL, Immunosource), SAHA (0.3 to 3 μM, AIDS reagents), prostratin (5 μM, AIDS reagents) or PMA (0.3 μM, AIDS reagents) 24 hours prior to analysis by flow cytometry. Time courses and drug concentrations are indicated in the individual experiments. LEDGINs were synthesized by the Cistim/CD3-facility (courtesy of Dr. A. Marchand).

[4] = system: HIV-based vector integration sites in SupT1 cells; experiment: Integration site distribution of HIV-based vector near mapped genomic features; format: cell-based
[5] = system: single-round HIV-based lentiviral vector in SupT1 cells; experiment: Transduction efficiency of single-round HIV-based lentiviral vector (eGFP flow cytometry); format: cell-based; conditions: dilution series, data not shown
Source text: In a next step we employed the recently developed LEDGINs, small molecules that inhibit LEDGF/p75-IN interaction and inhibit integration of HIV provirus (Christ et al., 2010, above) to investigate the impact of LEDGIN treatment on the HIV reservoir in cell culture. SupT1 cells were transduced with a single-round HIV-based lentiviral vector expressing the enhanced Green Fluorescent Protein (eGFP) reporter protein and treated with a dilution series of LEDGIN CX014442 (Christ et al 2012, above). […] In a first step, we determined integration site distribution of HIV-based viral vector integration sites (Gijsbers et al., 2009; Marshall et al., 2007). The number of integration sites is indicated for each data set (Table 2). First, we analysed lentiviral integration relative to a set of genomic features.

[6] = system: HIV OGH double reporter virus in SupT1 cells; format: cell-based, HIV-1; conditions: SupT1, 3 days post infection, increasing concentrations
[7] = system: NL4.3 virus in primary CD4+ T cells
Source text: Next we evaluated the multimodal effect of LEDGIN treatment on integration, assembly and reactivation in a multiple round reactivation model using WT HIV in resting CD4+ T-cells in order to model the in vivo situation. PHA/IL-2 activated primary (resting) CD4+ T cells were infected with NL4.3 virus in the presence of submicromolar concentrations of LEDGINs. At day four post infection (p.i.) LEDGINs were removed and cells were reseeded in the presence of PMA and PHA. Virus production upon reactivation was measured at day 7 p.i. by p24 ELISA.
Resting CD4+ T cells were purified using a custom-made EasySep negative selection kit (Stem Cell Technologies; 19052 cocktail, with the addition of CD25, CD69, and HLA-DR antibodies (catalogue number 19309VK)). […] Four days post-infection cells were washed twice using PBS and some cells were harvested for quantification of integrated proviral DNA using real time PCR (nested Alu-LTR PCR, (Butler et al., 2001; Lewin et al., 2008) normalized for input DNA by qPCR for the CCR5 gene as previously described (Zhang et al., 1999). Other cells were reseeded in the presence of 10 nM PMA (Sigma-Aldrich) together with 10 μg/mL PHA (Sigma-Aldrich) or left untreated. PHA activated feeder peripheral blood mononuclear cells (PBMCs) were added 24 h after the activating stimulus to amplify virus replication and enhance detection of the infection (Saleh et al., 2011). […]

[8] = system: HIV-1; experiment: 'late' IC50 stated in legend of FIG. 8; format: cell-based; conditions: Human immunodeficiency virus 1
[9] = system: HIV NL4-3.tCD34.R-.E- in SupT1 cells; experiment: microbe, parasite or virus in culture; format: cell-based; conditions: Human immunodeficiency virus 1, NL43, SUP-T1, read-out: inhibition of reactivation from latency
[10] = system: NL4-3.tCD34.R-.E-/VSV-G latent provirus in Nalm LEDGF/p75 KO (−/−) cells; format: cell-based, HIV
[11] = system: NL4-3.tCD34.R-.E-/VSV-G latent provirus in Nalm wt (+/c) cells; format: cell-based, HIV
[12] = compound concentration 0.78125 μM
[13] = compound concentration 1.5625 μM
[14] = compound concentration 3.125 μM

## CCCC(C(=O)O)c1c(C)nc2ccc(Cl)cc2c1-c1ccccc1 (centres unmarked) [CX014442, 2-(6-chloro-2-methyl-4-phenylquinolin-3-yl)pentanoic acid]
[1]; [12]
  % in UCR: 6.36%
  % in transcript. Units: 74.95%
  % within 50 kb of TSS: 31.13%
  % within 300 kb of miRNAs: 25.54%
  % within 300 kb of onco: 38.15%
  Total % safe: 11.14%
[1]; [13]
  % in UCR: 7.24%
  % in transcript. Units: 75.11%
  % within 50 kb of TSS: 29.28%
  % within 300 kb of miRNAs: 22.52%
  % within 300 kb of onco: 35.47%
  Total % safe: 10.36%
[1]; [14]
  % in UCR: 7.77%
  % in transcript. Units: 71.91%
  % within 50 kb of TSS: 28.57%
  % within 300 kb of miRNAs: 23.34%
  % within 300 kb of onco: 35.45%
  Total % safe: 11.31%
[1]; compound concentration 6.25 μM
  % in UCR: 6.03%
  % in transcript. Units: 70.48%
  % within 50 kb of TSS: 29.46%
  % within 300 kb of miRNAs: 21.76%
  % within 300 kb of onco: 33.03%
  Total % safe: 13.32%
[1]; compound concentration 12.5 μM
  % in UCR: 9.39%
  % in transcript. Units: 67.42%
  % within 50 kb of TSS: 31.33%
  % within 300 kb of miRNAs: 24.89%
  % within 300 kb of onco: 33.03%
  Total % safe: 13.24%
[1]; compound concentration 25 μM
  % in UCR: 6.95%
  % in transcript. Units: 66.06%
  % within 50 kb of TSS: 29.80%
  % within 300 kb of miRNAs: 21.52%
  % within 300 kb of onco: 35.26%
  Total % safe: 14.57%
[1]; compound concentration 50 μM
  % in UCR: 5.98%
  % in transcript. Units: 59.57%
  % within 50 kb of TSS: 32.54%
  % within 300 kb of miRNAs: 22.25%
  % within 300 kb of onco: 35.65%
  Total % safe: 16.51%
[2]
  % latently infected cells: increased
[3]
  reactivation of eGFP+, mKO2+ cells after TNFα relative to DMSO: 1.5-2 fold
[4]; compound concentration 0.54 μM
  % CpG within 2 kb: 2.33%
  % CpG within 4 kb: 5.83%
  % DHS within 2 kb: 24.07%
  % DHS within 4 kb: 39.94%
  % TSS within 2 kb: 2.00%
  % TSS within 4 kb: 5.92%
  in RefGene: 70.58%
[4]; compound concentration 1.5 μM
  % CpG within 2 kb: 2.37%
  % CpG within 4 kb: 5.79%
  % DHS within 2 kb: 20.94%
  % DHS within 4 kb: 37.18%
  % TSS within 2 kb: 2.41%
  % TSS within 4 kb: 5.88%
  in RefGene: 70.37%
[4]; compound concentration 3 μM
  % CpG within 2 kb: 1.73%
  % CpG within 4 kb: 5.39%
  % DHS within 2 kb: 21.49%
  % DHS within 4 kb: 37.55%
  % TSS within 2 kb: 1.97%
  % TSS within 4 kb: 5.59%
  in RefGene: 66.60%
[4]; compound concentration 6 μM
  % CpG within 2 kb: 2.97%
  % CpG within 4 kb: 6.39%
  % DHS within 2 kb: 21.78%
  % DHS within 4 kb: 37.12%
  % TSS within 2 kb: 3.03%
  % TSS within 4 kb: 6.45%
  in RefGene: 65.23** %
[4]; compound concentration 12 μM
  % CpG within 2 kb: 3.39%
  % CpG within 4 kb: 7.35%
  % DHS within 2 kb: 23.6%
  % DHS within 4 kb: 38.57%
  % TSS within 2 kb: 3.96** %
  % TSS within 4 kb: 7.58%
  in RefGene: 61.88*** %
[4]; compound concentration 25 μM
  % CpG within 2 kb: 4.97** %
  % CpG within 4 kb: 10.26** %
  % DHS within 2 kb: 22.19%
  % DHS within 4 kb: 40.07%
  % TSS within 2 kb: 4.30** %
  % TSS within 4 kb: 8.94%
  in RefGene: 60.93*** %
[4]; compound concentration 50 μM
  % CpG within 2 kb: 5.50%
  % CpG within 4 kb: 11.72*** %
  % DHS within 2 kb: 26.08%
  % DHS within 4 kb: 40.67%
  % TSS within 2 kb: 6.94%
  % TSS within 4 kb: 12.68*** %
  in RefGene: 54.55%
[4]; histone marks, data not shown
  epigenetic preference of integration for transcriptionally active regions: inverted in a dose dependent manner
[4]; shift out of transcriptionally active regions
  concentration at which a significant difference compared to wt in global integration preferences was reached: above 12 μM
[5]
  % eGFP positive cells (transduction efficiency): dose-dependent decrease
[6]
  % eGFP+, mKO2+ cells: dose dependent decrease
  overall % mKO2 positive cells: dose dependent decrease
[7]; 4 days p.i., submicromolar concentrations
  number of proviral DNA copies: reduced
[7]; day 7 p.i., average of two donors
  p24 production upon reactivation with PMA and PHA: reduced
[8]
  IC50: 0.06 µM
[9]
  EC50: 7.24 µM

## O=C(CCCCCCC(=O)Nc1ccccc1)NO [SAHA, Suberoylanilide Hydroxamic acid]
[10]
  reactivation of tCD34 expression: 2 fold
[11]
  reactivation of tCD34 expression: 3- to 4 fold
